Our source for the Kb values is patent publication US6313132A, “Therapeutically active diarylpropylamines; their pharmaceutically acceptable salts; a method for their preparation and method for their use” (Pharmacia AB, priority 1999, dated 2001).

Structures can show the parent of a compound that is named as a salt.

T1 sequence (H0W1Z3 1-590): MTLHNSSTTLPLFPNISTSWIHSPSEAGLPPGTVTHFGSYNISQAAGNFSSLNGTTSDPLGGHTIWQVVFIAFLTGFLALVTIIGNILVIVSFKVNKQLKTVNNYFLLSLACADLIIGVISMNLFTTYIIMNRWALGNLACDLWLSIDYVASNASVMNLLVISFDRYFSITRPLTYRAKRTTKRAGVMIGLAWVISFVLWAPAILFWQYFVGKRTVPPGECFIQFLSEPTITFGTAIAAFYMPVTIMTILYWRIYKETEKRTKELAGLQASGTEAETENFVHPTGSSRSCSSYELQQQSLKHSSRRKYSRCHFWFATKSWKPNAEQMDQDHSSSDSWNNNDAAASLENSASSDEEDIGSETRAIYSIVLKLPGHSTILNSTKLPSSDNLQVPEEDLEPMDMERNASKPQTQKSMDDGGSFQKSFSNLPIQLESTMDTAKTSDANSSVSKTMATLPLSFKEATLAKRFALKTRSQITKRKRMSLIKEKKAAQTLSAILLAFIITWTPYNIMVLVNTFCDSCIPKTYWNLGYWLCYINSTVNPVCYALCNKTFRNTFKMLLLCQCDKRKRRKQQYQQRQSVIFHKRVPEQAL

The first test concerns the target T1, muscarinic receptor (Cavia porcellus, UniProt H0W1Z3).
T1 construct: Smooth muscle strips of the urinary bladder were dissected in a Krebs-Henseleit solution; from tissue; host or cells: guinea pig urinary bladder smooth muscle strips
Briefly: Functional in vitro studies: antagonism of carbachol-induced contraction of urinary bladder smooth muscle strips. Type of test: cell-based, guinea pig. Particulars: male guinea pig urinary bladder strips; carbachol agonist; 60 min incubation with antagonist; Krebs-Henseleit pH 7.4, 37° C.; KB from dose ratios (Schild); 60 min; read-out: KB-value.
Protocol: Functional in Vitro Studies
Male guinea pigs, weighing about 300 g, were killed by a blow on the neck and exsanguinated. Smooth muscle strips of the urinary bladder were dissected in a Krebs-Henseleit solution (pH 7.4). The strip preparations were vertically mounted between two hooks in thermostatically controlled (37° C.) organ baths (5 ml). One of the hooks was adjustable and connected to a force transducer (FT 03, Grass Instruments). The Krebs-Henseleit solution was continuously bubbled with carbogen gas (93.5% O2 /6.5% CO2) to maintain the pH at 7.4. Isometric tension was recorded by a Grass Polygraph (Model 79D). A resting tension of approximately 5 mN was initially applied on each muscle strip and the preparations were allowed to stabilise for at least 45 min. The resting tension was repeatedly adjusted and the preparations were washed several times during the stabilisation period.
Carbachol (carbamylcholine chloride) was used as the standard muscarinic receptor agonist. In each experiment, the viability of the preparations and the reproducibility of their contractile responses were initially tested by two consecutive additions of a submaximal concentration (3×10^-6 M) of carbachol. A concentration-response curve to carbachol was then generated by cumulative addition of carbachol to the organ-bath (i.e., stepwise increase of the agonist concentration until the maximal contractile response was reached), followed by washing out and a resting period of at least 15 min. before a fix concentration of the test compound (antagonist) was added to the organ-bath. After 60 min. of incubation with the antagonist, a second cumulative concentration-responsecurve to carbachol was generated. Responses were expressed as percent of the maximal response to carbachol. EC50 -values for carbachol in the absence (control) and presence of antagonist were graphically derived and dose ratios (r) were calculated. Dissociation constants, KB, for the antagonists were calculated using equation (1) (Schild, H. I., Br. J. Pharmacol. Chemother. 1949, 4, 277-280), where [A] is the concentration of test compound:
On to `CC(C)N(CC[C@H](c1ccccc1)c1cc(C(O)CO)ccc1O)C(C)C` (single isomer, unassigned; (-)) [Example 16, (-)-N,N-Diisopropyl-3(R)-[5-(1(S*),2-dihydroxyethyl) 2-hydroxyphenyl]-3-phenylpropanamine fumarate], for which the Kb was determined as 0.032 µM.

Still in this test, the particulars now being: male guinea pig urinary bladder strips; carbachol agonist; 60 min incubation with antagonist; Krebs-Henseleit pH 7.4, 37° C.; KB from dose ratios (Schild); read-out: KB-value.
`COc1ccccc1C(CCN(C(C)C)C(C)C)c1cccs1` (centres unmarked) [Example 43, N,N-Diisopropylamine-3-(2-methoxyphenyl)-3-(2-thienyl)propanamine, fumarate]: the Kb is 0.029 µM.

Take `CC(C)N(C)CCC(c1ccccc1)c1cccs1` (centres unmarked) [Example 51, N-Isopropyl-N-methyl-3-phenyl-3-(2-thienyl)propanamine hydrochloride]: the antagonist equilibrium constant (Kb) turned out to be 0.118 µM.

Regarding `CC(C)N(CCC(c1ccccc1)c1ncco1)C(C)C` (centres unmarked) [Example 37, N,N-Diisopropyl-3-(oxazol-2-yl)-3-phenylpropanamine hydrochloride], the Kb was found to be 0.52 µM.

For `CC(C)N(CCC(c1ccccc1)c1ccccc1N)C(C)C` (centres unmarked) [Example 33, N,N-Diisopropyl-3-(2-aminophenyl)-3-phenylpropanamine hydrochloride], the Kb was determined as 0.056 µM.

On to `CC(C)N(CCC(c1ccccc1)c1ccccc1C(F)(F)F)C(C)C` (centres unmarked) [Example 4, N,N-Diisopropyl-3-(2-trifluoromethylphenyl)-3-phenylpropanamine hydrochloride], for which the Kb stood at 0.132 µM.

With `CC(=O)NCCCc1ccc(O)c([C@H](CCN(C(C)C)C(C)C)c2ccccc2)c1` [Example 23, (R)-N,N-Diisopropyl-3-[5-3-(acetamidopropyl)-2-hydroxyphenyl]-3-phenylpropanamine hydrochloride], the Kb came to 0.00105 µM.

As for `CC(C)N(CCC(c1ccccc1)c1cccs1)C(C)C` (centres unmarked) [Example 48, N,N-Diisopropyl-3-phenyl-3-(2-thienyl)propanamine, hydrochloride], the Kb is 0.031 µM.

With `Cc1ccc(O)c(C(CCN(C)C2CCCCC2)c2ccccc2)c1` (centres unmarked) [Example 3, N-Cyclohexyl-N-methyl-3-(2-hydroxy-5-methylphenyl)-3-phenylpropanamine hydrochloride], the antagonist equilibrium constant (Kb) came to 0.236 µM.

In the case of `CC(C)N(CCc1ccc(O)c([C@H](CCN(C(C)C)C(C)C)c2ccccc2)c1)C(C)C` [Example 18, (R)-N,N-Diisopropyl-3-[5-(2-diisopropylaminoethyl)-2-hydroxyphenyl]-3-phenylpropanamine hydrochloride], the antagonist equilibrium constant (Kb) is 0.172 µM.

In the case of `CC(C)N(CCC(c1ccccc1)c1nccs1)C(C)C` (centres unmarked) [Example 38, N,N-Diisopropyl-3-phenyl-3-(thiazol-2-yl)propanamine hydrochloride], the Kb turned out to be 0.207 µM.
